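The compound was tested at five concentrations on cells cultured in 96-well plates, with a 48-hour exposure period. TGI: total growth inhibition.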
Key:
Assay in all cases: NCI anticancer screen, dose series, 48 h
SN12C renal = test system: SN12C renal
HCT-15 colon = test system: HCT-15 colon
786-0 renal = test system: 786-0 renal
SR leukemia = test system: SR leukemia
IGROV1 ovarian = test system: IGROV1 ovarian
U251 CNS = test system: U251 CNS
MDA-MB-435 = test system: MDA-MB-435
HCC-2998 colon = test system: HCC-2998 colon
SNB-75 CNS = test system: SNB-75 CNS
CAKI-1 renal = test system: CAKI-1 renal
OVCAR-4 ovarian = test system: OVCAR-4 ovarian
NCI/ADR-RES ovarian = test system: NCI/ADR-RES ovarian
HT29 colon = test system: HT29 colon
MALME-3M melanoma = test system: MALME-3M melanoma
OVCAR-3 ovarian = test system: OVCAR-3 ovarian
OVCAR-5 ovarian = test system: OVCAR-5 ovarian
SNB-19 CNS = test system: SNB-19 CNS
SF-295 CNS = test system: SF-295 CNS
UO-31 renal = test system: UO-31 renal
MCF7 breast = test system: MCF7 breast
EKVX NSCLC = test system: EKVX NSCLC
K-562 leukemia = test system: K-562 leukemia
UACC-257 melanoma = test system: UACC-257 melanoma
SK-MEL-2 melanoma = test system: SK-MEL-2 melanoma
T-47D breast = test system: T-47D breast
M14 melanoma = test system: M14 melanoma
SK-OV-3 ovarian = test system: SK-OV-3 ovarian
OVCAR-8 ovarian = test system: OVCAR-8 ovarian
NCI-H522 lung = test system: NCI-H522 lung
CCRF-CEM leukemia = test system: CCRF-CEM leukemia
BT-549 breast = test system: BT-549 breast
SW-620 colon = test system: SW-620 colon
HOP-92 NSCLC = test system: HOP-92 NSCLC
HS 578T breast = test system: HS 578T breast
SK-MEL-5 melanoma = test system: SK-MEL-5 melanoma
HOP-62 NSCLC = test system: HOP-62 NSCLC
UACC-62 melanoma = test system: UACC-62 melanoma
TK-10 renal = test system: TK-10 renal
A549 NSCLC = test system: A549 NSCLC
SF-268 CNS = test system: SF-268 CNS
SK-MEL-28 melanoma = test system: SK-MEL-28 melanoma
SF-539 CNS = test system: SF-539 CNS
LOX IMVI melanoma = test system: LOX IMVI melanoma
NCI-H226 lung = test system: NCI-H226 lung
PC-3 prostate = test system: PC-3 prostate
NCI-H460 lung = test system: NCI-H460 lung
NCI-H23 lung = test system: NCI-H23 lung
MDA-N = test system: MDA-N
DU-145 prostate = test system: DU-145 prostate
MDA-MB-231 breast = test system: MDA-MB-231 breast
ACHN renal = test system: ACHN renal
KM12 colon = test system: KM12 colon
HCT-116 colon = test system: HCT-116 colon
A498 renal = test system: A498 renal
RXF 393 renal = test system: RXF 393 renal
MOLT-4 leukemia = test system: MOLT-4 leukemia
RPMI-8226 leukemia = test system: RPMI-8226 leukemia
COLO 205 colon = test system: COLO 205 colon
HL-60(TB) leukemia = test system: HL-60(TB) leukemia

## Cc1nc2ccccc2cc1C[N+]12CN3CN(CN(C3)C1)C2
SN12C renal
  TGI: 48.1 µM
HCT-15 colon
  TGI: 47 µM
786-0 renal
  TGI: 37.8 µM
SR leukemia
  TGI: > 100 µM
IGROV1 ovarian
  TGI: > 100 µM
U251 CNS
  TGI: 28.2 µM
MDA-MB-435
  TGI: 49.3 µM
HCC-2998 colon
  TGI: 30.8 µM
SNB-75 CNS
  TGI: 35.6 µM
CAKI-1 renal
  TGI: 59.8 µM
OVCAR-4 ovarian
  TGI: 64.9 µM
NCI/ADR-RES ovarian
  TGI: 56.3 µM
HT29 colon
  TGI: 60.8 µM
MALME-3M melanoma
  TGI: 32 µM
OVCAR-3 ovarian
  TGI: 86.2 µM
OVCAR-5 ovarian
  TGI: 57.8 µM
SNB-19 CNS
  TGI: 56.5 µM
SF-295 CNS
  TGI: 54.6 µM
UO-31 renal
  TGI: 57.4 µM
MCF7 breast
  TGI: 27.7 µM
EKVX NSCLC
  TGI: 50 µM
K-562 leukemia
  TGI: > 100 µM
UACC-257 melanoma
  TGI: 35.5 µM
SK-MEL-2 melanoma
  TGI: 39.8 µM
T-47D breast
  TGI: > 100 µM
M14 melanoma
  TGI: 39.1 µM
SK-OV-3 ovarian
  TGI: 98.9 µM
OVCAR-8 ovarian
  TGI: > 100 µM
NCI-H522 lung
  TGI: 38.2 µM
CCRF-CEM leukemia
  TGI: 23.7 µM
BT-549 breast
  TGI: 40 µM
SW-620 colon
  TGI: > 100 µM
HOP-92 NSCLC
  TGI: > 100 µM
HS 578T breast
  TGI: > 100 µM
SK-MEL-5 melanoma
  TGI: 32.8 µM
HOP-62 NSCLC
  TGI: 69.9 µM
UACC-62 melanoma
  TGI: 33.1 µM
TK-10 renal
  TGI: 63.4 µM
A549 NSCLC
  TGI: > 100 µM
SF-268 CNS
  TGI: 51 µM
SK-MEL-28 melanoma
  TGI: 45.1 µM
SF-539 CNS
  TGI: 64.5 µM
LOX IMVI melanoma
  TGI: 32.8 µM
NCI-H226 lung
  TGI: 52.8 µM
PC-3 prostate
  TGI: 34.3 µM
NCI-H460 lung
  TGI: 45.1 µM
NCI-H23 lung
  TGI: 33.9 µM
MDA-N
  TGI: 65.6 µM
DU-145 prostate
  TGI: 82.1 µM
MDA-MB-231 breast
  TGI: 43.1 µM
ACHN renal
  TGI: 38.5 µM
KM12 colon
  TGI: 45.8 µM
HCT-116 colon
  TGI: 33.2 µM
A498 renal
  TGI: 47.8 µM
RXF 393 renal
  TGI: 40.4 µM
MOLT-4 leukemia
  TGI: > 100 µM
RPMI-8226 leukemia
  TGI: > 100 µM
COLO 205 colon
  TGI: 28.8 µM

## Cc1ccc(Nc2nc(NS(=O)(=O)c3cc(C)c(Cl)cc3S)n[nH]2)cc1
SN12C renal
  TGI: > 100 µM
HCT-15 colon
  TGI: > 100 µM
786-0 renal
  TGI: > 100 µM
SR leukemia
  TGI: > 100 µM
IGROV1 ovarian
  TGI: > 100 µM
U251 CNS
  TGI: > 100 µM
MDA-MB-435
  TGI: > 100 µM
HCC-2998 colon
  TGI: > 100 µM
SNB-75 CNS
  TGI: > 100 µM
CAKI-1 renal
  TGI: > 100 µM
OVCAR-4 ovarian
  TGI: > 100 µM
NCI/ADR-RES ovarian
  TGI: > 100 µM
HT29 colon
  TGI: > 100 µM
MALME-3M melanoma
  TGI: > 100 µM
OVCAR-3 ovarian
  TGI: > 100 µM
OVCAR-5 ovarian
  TGI: > 100 µM
SNB-19 CNS
  TGI: > 100 µM
SF-295 CNS
  TGI: > 100 µM
UO-31 renal
  TGI: > 100 µM
HL-60(TB) leukemia
  TGI: > 100 µM
MCF7 breast
  TGI: > 100 µM
EKVX NSCLC
  TGI: > 100 µM
K-562 leukemia
  TGI: > 100 µM
UACC-257 melanoma
  TGI: > 100 µM
SK-MEL-2 melanoma
  TGI: > 100 µM
T-47D breast
  TGI: > 100 µM
M14 melanoma
  TGI: > 100 µM
SK-OV-3 ovarian
  TGI: > 100 µM
OVCAR-8 ovarian
  TGI: > 100 µM
NCI-H522 lung
  TGI: > 100 µM
CCRF-CEM leukemia
  TGI: > 100 µM
BT-549 breast
  TGI: > 100 µM
SW-620 colon
  TGI: > 100 µM
HOP-92 NSCLC
  TGI: > 100 µM
HS 578T breast
  TGI: > 100 µM
SK-MEL-5 melanoma
  TGI: > 100 µM
HOP-62 NSCLC
  TGI: > 100 µM
UACC-62 melanoma
  TGI: > 100 µM
TK-10 renal
  TGI: > 100 µM
A549 NSCLC
  TGI: > 100 µM
SF-268 CNS
  TGI: > 100 µM
SK-MEL-28 melanoma
  TGI: > 100 µM
SF-539 CNS
  TGI: > 100 µM
LOX IMVI melanoma
  TGI: > 100 µM
NCI-H226 lung
  TGI: > 100 µM
PC-3 prostate
  TGI: > 100 µM
NCI-H460 lung
  TGI: > 100 µM
NCI-H23 lung
  TGI: > 100 µM
MDA-N
  TGI: > 100 µM
DU-145 prostate
  TGI: > 100 µM
MDA-MB-231 breast
  TGI: > 100 µM
ACHN renal
  TGI: > 100 µM
KM12 colon
  TGI: > 100 µM
HCT-116 colon
  TGI: > 100 µM
A498 renal
  TGI: > 100 µM
RXF 393 renal
  TGI: > 100 µM
MOLT-4 leukemia
  TGI: > 100 µM
RPMI-8226 leukemia
  TGI: > 100 µM
COLO 205 colon
  TGI: > 100 µM
